In patent US8912146B2, “Derivatives of APF and methods of use” (University of Maryland, Baltimore, priority 2008, dated 2014):
Entries after “also recorded” stand apart in the source; their conditions may differ. Like-named read-outs stand apart in the source and are kept apart here.

Experiments:
[1] = test system: primary normal human bladder epithelial cells; experiment: 3H-thymidine incorporation (antiproliferative activity) in primary normal bladder epithelial cells; type: cell-based
Description: Cell Culture. Cystoscopy was performed under general anesthesia, and 4-mm^2 pieces of transitional epithelium with submucosal bladder tissue were obtained for the growth of primary bladder epithelial cells, as previously described (Keay et al., 1996; 2004). Primary normal bladder epithelial cells were propagated in DMEM-F12 (Media-Tech, Herndon Va.) with 10% heat-inactivated fetal bovine serum (FBS), 1% antibiotic/antimycotic solution, 1% L-glutamine, 0.25 units/mL insulin (all from Sigma, St. Louis, Mo.), and 5 ng/mL hEGF (R&D Systems, Minneapolis, Minn.) at 37° C. in a 5% CO2 atmosphere and characterized by binding of AE-1/AE-3 pancytokeratin antibodies (Signet, Dedham, Mass.).
^3H-Thymidine Incorporation. Cell proliferation was measured by ^3H-thymidine incorporation into explanted normal human bladder epithelial cells, plating 1.5×10^4 cells/well onto a 96 well cell culture plate (VWR 29442-054), in 150 ul/well MEM containing 10% heat inactivated FBS, 1% antibiotic/antimycotic solution, and 1% L-glutamine (all from Sigma), resulting in a doubling time of 48-72 hours, as previously described (Keay et al., 1996; 2004). Each purified lyophilized synthetic APF congener was resuspended in acetonitrile/distilled water (1:1), and applied to the cells in serum-free MEM (containing only L-glutamine and antibiotics/antimycotics); cell controls received acetonitrile/distilled water diluted in serum-free MEM alone. Cells were then incubated at 37° C. in a 5% CO2 atmosphere for 48 hours. The cell contents harvested and methanol-fixed onto glass fiber filter paper, and the amount of radioactivity incorporated determined. Significant inhibition of ^3H-thymidine incorporation was defined as a mean decrease in counts per minute of greater than 2 standard deviations from the mean of control cells for each plate. Inhibition of cell proliferation was determined from a semi-log plot of dose-response for each APF derivative; IC50 was determined as the concentration of each derivative that caused a mean 50% inhibition of thymidine incorporation as compared to the mean of untreated cell controls.
Statistical Analysis. The thymidine incorporation (APF biological activity) assay was performed in triplicate on at least two separate runs, with 1 run simultaneously in triplicate on the same plate. The significance of the difference between mean values for each congener vs. mean values for compound 1 was determined by an analysis of variance.

[2] = test system: bladder epithelial cells from IC/PBS patients; experiment: Stimulation of IC/PBS cell proliferation (3H-thymidine incorporation); type: cell-based, human
Description: (§1) IC/PBS cells were incubated with varying concentrations of two derivatives shown to inhibit APF activity in normal bladder cells—GalGalNAc-TV(D-pipecolic acid) AAVVVA (SEQ ID NO:14) and GalGalNAc-TV (D-proline)AAVVVA (SEQ ID NO:27). Cell proliferation was determined by ^3H-thymidine incorporation; gene expression by quantitative RT-PCR; specific protein expression by Western blot analysis; tight junction formation by confocal immunofluorescence microscopy; and paracellular permeability by ^14C-mannitol and ^3H-inulin flux between confluent cells on Transwell plates. Significance of the difference in mean values between groups was determined by an analysis of variance for each assay.
as §1, with “cells -GalGalNAc-TV-(D-pipecolic acid)-AAVVVA” for “cells—GalGalNAc-TV(D-pipecolic acid) AAVVVA”, “NO:7)” for “NO:14)”, “GalGalNAc-TV-(D-proline)-AAVVVA” for “GalGalNAc-TV (D-proline)AAVVVA”, “RT-PCR;” for “RT-PCR; specific protein expression by Western blot analysis;”
IC/PBS cells produce APF and as a result have a profound decrease in cell proliferation. […]
Cystoscopy was performed under general anesthesia, and 4-mm^2 pieces of transitional epithelium with submucosal bladder tissue were obtained from IC/PBS patients and controls for the growth of primary bladder epithelial cells, as previously described (Keay et al., 2000; Keay et al., 2001; Keay et al., 2004; Keay et al., 2003). […]
Cell proliferation was measured by ^3H-thymidine incorporation into explanted normal human bladder epithelial cells, as previously described (Keay et al., 2000; Keay et al., 2001; Keay et al., 2004; Keay et al., 2003; Saitoh et al., 2001). […]

[3] = test system: IC/PBS cell monolayers; experiment: Paracellular permeability (14C-mannitol and 3H-inulin flux, Transwell) of IC/PBS cell monolayers; type: cell-based, human; settings: 16 or 30 days treatment
Description: Flux assays were performed using 12-mm Transwell culture plates (Corning Incorporated, Corning, N.Y.), as previously described (Keay et al., 2000). Cells were plated at 4×10^5 cells/cm^2 on the insert and grown in DMEM-F12 medium containing 10% heat-inactivated FBS, 1% antibiotic solution, 1% L-glutamine, 0.25 units/ml insulin (all from Sigma, St. Louis, Mo.), and 5 ng/ml hEGF (R & D Systems, Minneapolis, Minn.) to establish tight monolayers. On day 2, the medium was changed to MEM (GIBCO/Invitrogen) containing 1% antibiotic/antimycotic solution and 1% L-glutamine (Sigma).
Two different membrane impermeable molecules, [14C]-mannitol (molecular weight: 184 Daltons) and [^3H]-inulin (molecular weight: 5,200 Daltons), served as paracellular tracers. […] Flux assays were performed at 37° C.; basal medium was collected at 0.5-6 hrs after addition of [^14C]-mannitol or [3H]-inulin, and the amount of radioactivity determined using a Beckman LS 5000 scintillation counter. Results were expressed as percentage of total counts for each tracer.
For the permeability assay, the percentage of total counts in the basal medium was determined in four experiments (using different IC/PBS cell donors), and expressed as mean±standard deviation. […]

CC(=O)NC1C(O[C@@H]2OC(CO)[C@H](O)C(O)C2O)[C@@H](O)C(CO)O[C@@H]1OC(C)[C@H](N)C(=O)NC(C(=O)N1CCCC1C(=O)NC(C)C(=O)N[C@@H](C)C(=O)NC(C(=O)N[C@H](C(=O)NC(C(=O)N[C@@H](C)C(=O)O)C(C)C)C(C)C)C(C)C)C(C)C (stereo in doubt) [Derivative 8, GalGalNAc-TV(D-proline)AAVVVA]
antiproliferative activity compared with as-APF (1), in words [1]: completely abolished activity | antiproliferative activity compared with as-APF (1), in words ([1]; listed as D-proline APF): Neither D-proline APF nor D-pipecolic acid APF had any intrinsic antiproliferative activity | % of activity ([1]; relative to 1 (as-APF) run on the same plate, from IC50, inactive = no significant activity at <25 μM): inactive | stimulation of IC/PBS cell proliferation ([2]; 1 nM twice weekly, by Day 16 (FIG. 55)): significantly (p<0.05) stimulated IC/PBS cell proliferation | stimulation of IC cell proliferation ([2]; 0.25 μM of each agent, 9, 16, 23, 30 day treatment (FIG. 41)): Optimal stimulation of IC cell proliferation | IC cell proliferation vs untreated controls ([2]; 16 and 30 days of treatment (FIG. 48)): significantly stimulated | paracellular permeability of IC/PBS cells (14C-mannitol, 3H-inulin) [3]: significantly decrease permeability | paracellular permeability of IC/PBS cells (14C-mannitol, 3H-inulin) ([3]; listed as D-proline APF): normalized; also recorded: significantly decreased paracellular permeability
